Molecules are shown by their SMILES.

In test [1] the target is His6-ERα298-554 WT (ERα ligand-binding domain) (Homo sapiens (Human), UniProt P03372). As to the kind of experiment: Test A: biochemical antagonist activity, LanthaScreen TR-FRET ERα coactivator assay, WT. To be noted: protocol with 3 nM estradiol; read-out: Antagonism WT IC50. In a few lines:
(§1)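 His6-ERα LBD (aa 298–554), 0.5 nM, with Tb-anti-His6 antibody, 250 nM PGC1a peptide and 3 nM (or 10 nM) estradiol in pH 7.4 potassium phosphate/DTT buffer; incubated with compound overnight at room temperature. IC50 from 4-parameter logistic fit of TR-FRET 520:495 nm ratio.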
In general terms: Time-resolved FRET reads energy transfer from a long-lived donor to a nearby acceptor.

Test [2] has as its target His6-ERα298-554 D538G mutant (ERα ligand-binding domain) (Homo sapiens (Human), UniProt P03372, D538G). As to the kind of experiment: Test A: biochemical antagonist activity, LanthaScreen TR-FRET ERα coactivator assay, D538G mutant. As to conditions: protocol with 3 nM estradiol; read-out: Antagonism D538G IC50. In a few lines: as §1
In test [3] the target is His6-ERα298-554 Y537S mutant (ERα ligand-binding domain) (Homo sapiens (Human), UniProt P03372, Y537S). Kind of test: Test A: biochemical antagonist activity, LanthaScreen TR-FRET ERα coactivator assay, Y537S mutant. As to conditions: protocol with 3 nM estradiol; read-out: Antagonism Y537S IC50. The procedure, abridged:
as §1

In test [4] the test system is MCF7 cells (breast tumor cells) WT. Kind of test: Test B: cell proliferation/viability assay (CellTiter-Glo) on MCF7 WT. The test is classed as cell-based. As to conditions: Homo sapiens, MCF7, 168 h, 7 days of compound exposure. The procedure, abridged:
(§2)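 Viability is measured in MCF7 cells, either parental or engineered to depend on mutant estrogen receptor. Compounds act for 7 days at final concentrations from 3 to 0.000001 μM in hormone-depleted medium, with ATP luminescence as the read-out.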
In general terms: ATP-based viability assays read luminescence as a measure of living cells.

Test [5] has as its system MCF7 cells expressing mutant estrogen receptor Tyr 537 Ser. Kind of test: Test B: cell proliferation/viability assay (CellTiter-Glo) on MCF7 Tyr 537 Ser mutant. The test is classed as cell-based. As to conditions: Homo sapiens, MCF7, 168 h, MCF7 cells expressing ER Tyr 537 Ser mutant, 7 days of compound exposure, read-out: proliferation MCF7 Y537S IC50. In a few lines: as §2

Test [6] deals with MCF7 cells expressing mutant estrogen receptor Asp 538 Gly. As to the kind of experiment: Test B: cell proliferation/viability assay (CellTiter-Glo) on MCF7 Asp 538 Gly mutant. It is filed as cell-based. As to conditions: Homo sapiens, MCF7, 168 h, MCF7 cells expressing ER Asp 538 Gly mutant, 7 days of compound exposure, read-out: proliferation MCF7 D538G IC50. In a few lines:
as §2

In the next test the target is ERα in MCF7 cells (Homo sapiens (Human), UniProt P03372). As to the kind of experiment: Test C: estrogen receptor degradation activity, ERα in cell western assay in MCF7 cells. The test is classed as cell-based. As to conditions: for DC50: 4 hours post compound addition, ERα in cell western, read-out: Degradation IC50; for % Degradation at 3 μM: 4 hours, relative to fulvestrant. The procedure, abridged:
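Degradation of ERα was gauged in MCF7 cells after 4 h treatment, by fluorescence immunostaining normalised against DNA content.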

ERα in MCF7 cells, sequence (P03372 whole entry): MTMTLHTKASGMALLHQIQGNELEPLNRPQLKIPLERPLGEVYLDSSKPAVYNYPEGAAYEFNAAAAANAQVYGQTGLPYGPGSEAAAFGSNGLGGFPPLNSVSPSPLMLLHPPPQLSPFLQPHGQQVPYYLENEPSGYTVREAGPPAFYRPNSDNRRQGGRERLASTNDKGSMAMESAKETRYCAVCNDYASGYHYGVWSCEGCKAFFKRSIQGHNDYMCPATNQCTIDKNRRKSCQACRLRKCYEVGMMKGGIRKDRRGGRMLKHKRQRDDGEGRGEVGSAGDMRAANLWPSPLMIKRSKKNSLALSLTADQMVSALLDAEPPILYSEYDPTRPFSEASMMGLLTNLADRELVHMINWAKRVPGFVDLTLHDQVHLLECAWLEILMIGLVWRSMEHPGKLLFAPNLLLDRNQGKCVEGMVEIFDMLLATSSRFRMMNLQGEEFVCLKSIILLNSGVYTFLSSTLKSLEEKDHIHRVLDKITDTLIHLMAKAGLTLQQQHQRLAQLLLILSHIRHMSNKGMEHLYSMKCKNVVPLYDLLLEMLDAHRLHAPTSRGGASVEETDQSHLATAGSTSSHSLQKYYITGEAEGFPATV
His6-ERα298-554 WT (ERα ligand-binding domain), sequence (P03372 298-554): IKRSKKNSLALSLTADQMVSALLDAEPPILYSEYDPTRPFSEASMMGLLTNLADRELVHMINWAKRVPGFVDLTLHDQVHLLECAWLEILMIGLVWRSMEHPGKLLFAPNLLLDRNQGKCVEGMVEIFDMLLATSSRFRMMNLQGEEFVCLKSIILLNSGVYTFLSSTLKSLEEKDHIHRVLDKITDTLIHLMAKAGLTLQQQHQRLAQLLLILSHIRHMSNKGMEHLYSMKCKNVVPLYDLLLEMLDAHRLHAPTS
His6-ERα298-554 D538G mutant (ERα ligand-binding domain), sequence (P03372 298-554 D538G): as the sequence (P03372 298-554) above, with D241G counted along it
His6-ERα298-554 Y537S mutant (ERα ligand-binding domain), sequence (P03372 298-554 Y537S): as the sequence (P03372 298-554) above, with Y240S counted along it

For `CCOc1ccc(C2=C(c3ccc(O[C@H]4CCN(CCCF)C4)cc3)c3ccc(O)cc3OCC2)c(C)c1` [Example 119, 4-(4-ethoxy-2-methyl-phenyl)-5-[4-[(3S)-1-(3-fluoropropyl)pyrrolidin-3-yl]oxyphenyl]-2,3-dihydro-1-benzoxepin-8-ol], the IC50 in test [1] was determined as 2 nM; in test [2] it was 10 nM; in test [3] it was 6 nM; in test [4], 0.6 nM; in test [5], 5 nM; in test [6], 0.5 nM. Moreover, the DC50 on ERα in MCF7 cells came to 1 nM. At ERα in MCF7 cells, the “% Degradation at 3 μM” value is on record as 91%.
Take `Oc1ccc2c(c1)OCCC(c1ccc3occc3c1)=C2c1ccc(O[C@H]2CCN(CCCF)C2)cc1` [Example 120, 4-(benzofuran-5-yl)-5-[4-[(3S)-1-(3-fluoropropyl)pyrrolidin-3-yl]oxyphenyl]-2,3-dihydro-1-benzoxepin-8-ol]: the IC50 in test [1] was 2 nM; in test [2] it was 7 nM; in test [3], 4 nM; in test [4] it was 1 nM; in test [5], 10 nM; in test [6], 2 nM. Further, the DC50 on ERα in MCF7 cells is 0.7 nM. Besides, the “% Degradation at 3 μM” value on ERα in MCF7 cells is 91%.
Regarding `COc1ccc(C2=C(c3ccc(O[C@H]4CCN(CCCF)C4)cc3)c3ccc(O)cc3OCC2)c(F)c1` [Example 121, 4-(2-fluoro-4-methoxy-phenyl)-5-[4-[(3S)-1-(3-fluoropropyl)pyrrolidin-3-yl]oxyphenyl]-2,3-dihydro-1-benzoxepin-8-ol], the IC50 in test [1] is 2 nM; in test [2], 27 nM; in test [3] it was 13 nM; in test [4], 0.3 nM; in test [5], 3 nM; in test [6] it was 1 nM. Moreover, on ERα in MCF7 cells, the DC50 was 0.2 nM. Besides, the “% Degradation at 3 μM” value on ERα in MCF7 cells was determined as 90%.
In the case of `Oc1ccc2c(c1Cl)OCCC(c1cccc3[nH]ccc13)=C2c1ccc(O[C@H]2CCN(CCCF)C2)cc1` [Example 124, 9-chloro-5-[4-[(3S)-1-(3-fluoropropyl)pyrrolidin-3-yl]oxyphenyl]-4-(1H-indol-4-yl)-2,3-dihydro-1-benzoxepin-8-ol], the IC50 was determined as 22 nM in test [1]; 849 nM in test [2]; 1240 nM in test [3]; 8 nM in test [4]; 165 nM in test [5]; 33 nM in test [6]. In addition, the DC50 at ERα in MCF7 cells worked out at 5 nM. The “% Degradation at 3 μM” value at ERα in MCF7 cells was determined as 76%.
With `Cc1c(O)ccc2c1OCCC(c1ccc3cc[nH]c3c1)=C2c1ccc(O[C@H]2CCN(CCCF)C2)cc1` [Example 129, 5-[4-[(3S)-1-(3-fluoropropyl)pyrrolidin-3-yl]oxyphenyl]-4-(1H-indol-6-yl)-9-methyl-2,3-dihydro-1-benzoxepin-8-ol], the IC50 is 502 nM in test [1]; more than 4000 nM in test [2]; 2680 nM in test [3]; 245 nM in test [4]; more than 999 nM in test [5]; 456 nM in test [6]. The DC50 at ERα in MCF7 cells was determined as 44 nM. Also, the “% Degradation at 3 μM” value on ERα in MCF7 cells was determined as 75%.
With `Cc1ccc(C2=C(c3ccc(O[C@H]4CCN(CCCF)C4)cc3)c3cc(F)c(O)cc3OCC2)c(F)c1` [Example 138, 7-fluoro-4-(2-fluoro-4-methyl-phenyl)-5-[4-[(3S)-1-(3-fluoropropyl)pyrrolidin-3-yl]oxyphenyl]-2,3-dihydro-1-benzoxepin-8-ol], the IC50 was 18 nM in test [1]; 360 nM in test [2]; 253 nM in test [3]; 2 nM in test [4]; 51 nM in test [5]; 7 nM in test [6]. Besides, the DC50 on ERα in MCF7 cells came out at 0.5 nM. For the same compound, at ERα in MCF7 cells, the “% Degradation at 3 μM” value came out at 89%.
For `CC(C)Oc1ccc(C2=C(c3ccc(O[C@H]4CCN(CCCF)C4)cc3)c3ccc(O)cc3OCC2)cc1F` [Example 141, 4-(3-fluoro-4-isopropoxy-phenyl)-5-[4-[(3S)-1-(3-fluoropropyl)pyrrolidin-3-yl]oxyphenyl]-2,3-dihydro-1-benzoxepin-8-ol], the IC50 in test [1] was 23 nM; in test [2], 1500 nM; in test [3], 1120 nM; in test [4] it was 1 nM; in test [5], 22 nM; in test [6], 4 nM. In addition, the DC50 on ERα in MCF7 cells was determined as 2 nM. Besides, at ERα in MCF7 cells, the “% Degradation at 3 μM” value is given as 87%.
For the compound `Oc1cc2c(cc1F)C(c1ccc(O[C@H]3CCN(CCCF)C3)cc1)=C(c1ccc3c(c1)CCN3)CCO2` [Example 142, 7-fluoro-5-[4-[(3S)-1-(3-fluoropropyl)pyrrolidin-3-yl]oxyphenyl]-4-indolin-5-yl-2,3-dihydro-1-benzoxepin-8-ol], the IC50 in test [1] was 41 nM; in test [2], 1820 nM; in test [3], 1150 nM; in test [4], 8 nM; in test [5] it was 154 nM; in test [6] it was 34 nM. For the same compound, the DC50 at ERα in MCF7 cells is 2 nM. Moreover, the “% Degradation at 3 μM” value at ERα in MCF7 cells was 83%.
For the compound `Oc1cc2c(cc1Cl)C(c1ccc(O[C@H]3CCN(CCCF)C3)cc1)=C(c1ccc3c(c1)CCN3)CCO2` [Example 143, 7-chloro-5-[4-[(3S)-1-(3-fluoropropyl)pyrrolidin-3-yl]oxyphenyl]-4-indolin-5-yl-2,3-dihydro-1-benzoxepin-8-ol], the IC50 was determined as 464 nM in test [1]; 4000 nM in test [2]; 4000 nM in test [3]; 24 nM in test [4]; 357 nM in test [5]; 63 nM in test [6]. On ERα in MCF7 cells, the DC50 came out at 14 nM. Besides, the “% Degradation at 3 μM” value at ERα in MCF7 cells is 74%.
In the case of `Oc1cc2c(cc1Cl)C(c1ccc(O[C@H]3CCN(CCCF)C3)cc1)=C(c1ccc3[nH]ccc3c1)CCO2` [Example 144, 7-chloro-5-[4-[(3S)-1-(3-fluoropropyl)pyrrolidin-3-yl]oxyphenyl]-4-(1H-indol-5-yl)-2,3-dihydro-1-benzoxepin-8-ol], the IC50 in test [1] stood at 528 nM; in test [2] it was 4000 nM; in test [3], 4000 nM; in test [4], 38 nM; in test [5], 653 nM; in test [6], 64 nM. On ERα in MCF7 cells, the DC50 was determined as 18 nM. Further, at ERα in MCF7 cells, the “% Degradation at 3 μM” value stood at 75%.
Turning to `Cc1ccc(C2=C(c3ccc(O[C@H]4CCN(CCCF)C4)cc3)c3cc(Cl)c(O)cc3OCC2)c(F)c1` [Example 145, 7-chloro-4-(2-fluoro-4-methyl-phenyl)-5-[4-[(3S)-1-(3-fluoropropyl)pyrrolidin-3-yl]oxyphenyl]-2,3-dihydro-1-benzoxepin-8-ol], the IC50 in test [1] was determined as 256 nM; in test [2], 4000 nM; in test [3], 3270 nM; in test [4], 9 nM; in test [5], 124 nM; in test [6] it was 17 nM. Also, at ERα in MCF7 cells, the DC50 worked out at 0.5 nM. In addition, on ERα in MCF7 cells, the “% Degradation at 3 μM” value was 82%.

For the origin of these results see patent publication US11149031B2, “Substituted N-(3-fluoropropyl)-pyrrolidine compounds, processes for their preparation and therapeutic uses thereof” (SANOFI, priority 2016, dated 2021).
